The text below walks through data of US4066678A (priority 1975, dated 1978).

What is called LD50 is the dose expected to kill half of the subjects tested. Read a high LD50 as a less toxic substance.

One series concerns Rats (Wistar strain). The series can be described thus: Acute toxicity of NaOGe in rats. The format is in vivo. Conditions: per os, female. The text has this:
(§1) Acute Toxicities of NaOGe according to the […]

A short description of series [1]: Acute toxicity of NaOGe in rats. The format is in vivo, Rats (Wistar strain). Conditions: rat, in vivo, po; per os, male.
From the text: as §1

A further series concerns infants. The series can be described thus: Clinical use: infants. The format is in vivo.
A short description of series [2]: Clinical use: protective effect of drug administration for long periods. Conditions: 50mg/body/day administered with the others, long-term. Type of series: in vivo.
Series [3] is described as follows: Clinical use: kidney function. Conditions: in vivo.
Series [4] can be described thus: Clinical use: therapy of dysfunction liver (hepatitis). Type of series: in vivo, patients. On the procedure: In patients receiving 100mg/body/day of the drug, the improvement of alkali phosphatase, SGOT, SGPT, ASAC and α-GPT and abnormal fraction of serum-protein was observed.
Series [5] can be described thus: Clinical use: digestive system. Type of series: in vivo. The text has this:
The effect is found clearly by X-ray examination.

The nature of series [6]: Clinical use: peripheral neuritis. Type of series: in vivo, patients. To be noted: 100mg/body/day.
Series [7] in a line: Clinical use: improvement of peripheral circulation. Type of series: in vivo, patient. The text has this: This is observed by plethysmography.
A short description of series [8]: Effect of NaOGe on Diabetes Mellitus in human being. The format is in vivo. To be noted: in words. Here is the method: The duration of drug administration was at the least 1 month, at the most 12 months. The following results are obtained:
(§2) *Numbers showing good response / total numbers
Dr. A. Ishikawa of our research group has investigated the effect of NaOGe on Diabetes Millitus in human being. The administration of 40-150 mg/kg body of NaOGe was divided orally in two or three doses.

A short description of series [9]: Effect of NaOGe on development of amyloidosis in mice. Type of series: in vivo, ICR strain mice. To be noted: in words. Here is the method:
From the above results, it was presumed that OGe might act not only hypertension but some of metabolic changes related to aging. Thus, the influence of NaOGe on the development of amyloidosis in mice was tested. The ICR strain mice had been treated with oral administration of NaOGe for 22 months. After that, all mice were sacrificed and the development of amyloidosis in several important organs was investigated.

A short description of series [10]: Clinical use: effect in obstetrics. Type of series: in vivo, patients. An excerpt:
The drug is particularly-effective on various symptoms including morning sickness caused by pregnance.

Series [11] in a line: Clinical use: allergic diseases. Type of series: in vivo, patients.
Another series can be described thus: Clinical use: migrain. The format is in vivo.
The nature of another series: Clinical use: epilepsy. Type of series: in vivo, patients. Here is the method:
A large amount therapy, 100-500mg/body/day in a dosis, is performed. […] In these points, the patients are humanly matured.

A further series is described as follows: Hygroscopic property. The format is physicochemical.
The nature of a further series: Clinical use: hepatoma. Conditions: in vivo.
A further series is described as follows: Clinical use: depression. The format is in vivo, patients. Conditions: about 100mg/body/day oral. An excerpt: In moderate depression, about at the 8th day after drug administration, the improvement is observed.
A further series has as its system Mice (ICR strain). In words: Acute toxicity of NaOGe in mice. To be noted: per os, female. Type of series: in vivo.
From the text: as §1

Series [12] is described as follows: Acute toxicity of NaOGe in mice. To be noted: mouse, in vivo, po; per os, male. Type of series: in vivo, Mice (ICR strain).
From the text: as §1

Series [13] can be described thus: Clinical use: acceleration of heart function. Type of series: in vivo, patients.
Series [14] can be described thus: Effect of NaOGe on essential hypertension in human being. The format is in vivo. Conditions: in words. On the procedure: Dr. A. Ishikawa, of our research group, has investigated the effect of NaOGe on essential hypertension in human being. The adminstration of 40-150 mg/body of NaOGe was divided orally in two or three doses. The duration of drug administration was at the least 1 month, at the most 12 months. The following results are obtained:
as §2

The nature of series [15]: Clinical use: loss of autonomic nervous system function. Type of series: in vivo, patients.
Another series has as its system ascites hepatoma. In words: Direct cytocidal action of NaOGe. Also on record: species or system rats. Conditions: in words.
Series [16] can be described thus: Clinical use: schizophrenia. Type of series: in vivo, patients. To be noted: 200-300mg/body/day oral. On the procedure: The oral administration of 200mg/body/day ~ 300mg/body/day is necessary.
In a further series the test system is AH66. In words: Effect on ascites hepatoma AH66 in rats. The format is in vivo, Doryu rats. Conditions: 100mg/kg/day for 10 days, all control rats died. On the procedure:
(§3) Dr. H. Sato, of our research group, investigated the antitumor effect of NaOGe by using several strains of ascites hepatoma in rats. For this investigation, the following […] strains of hepatoma were used: AH13, AH130, AH272, AH44, AH66F, AH7974, AH41C, AH60C and AH109A. 10^7 cells of each strain tumor were inoculated intravenously into the Doryu rats, 72 hours later, 100mg/kg/day of OGe was administered for 10 days.

A further series concerns AH44. The series can be described thus: Effect on ascites hepatoma AH44 in rats. Conditions: 100mg/kg/day for 10 days, all control rats died. Type of series: in vivo, Doryu rats. Here is the method:
as §3

The nature of series [17]: Clinical use: general fatigue, malaise and asthenia. Type of series: in vivo.
Series [18] is described as follows: Clinical use: liver cirrhose. The format is in vivo, patients. Conditions: 100-200mg/body/day.
The subject of series [19] is Spontaneously Hypertensive Rats. The series can be described thus: Effect of NaOGe on blood pressure of spontaneously hypertensive rats. Type of series: in vivo, rats (SHR strain). Conditions: in words. On the procedure:
To investigate the effect of NaOGe on hypertension, 100mg/kg/day of sodium salt of OGe had been administered to spontaneously hypertensive rats (SHR strain) and estimated the change of blood pressure.

Setting [20] is: cadmium chloride 2.0 mg/kg iv alone, 8th day of gestation.
The mark [21] stands for this setting: 75mg/body/day, asthma bronchitis and chronic exanthema.

In the case of `[Cl][Cd][Cl]` [Cadmium chloride], the teratogenic action entry with golden hamster (2.0mg/kg intravenously, 8th day of gestation, in words) is “produces cleft palate, exencepalia, harelips and open-eye lid”. Moreover, in the series with golden hamster (setting [20]), the Living fetuses is recorded as 4.9%, the Malformation amounted to 25.5% and the Resorbed embryos is listed as 51.0%.
In the case of `O=C([O-])C[CH2][Ge]([OH])([OH])[OH].[Na+]` [NaOGe, Sodium 3-trihydroxygermylpropionate], the LD50 entry with Rats (Wistar strain) is “over 10 g/kg”. The LD50 in series [1] was above 10000 mg/kg. Besides, the “actonic vomiting and autointoxication” value with infants (20 - 50 mg/body/day) was “effective on actonic vomiting and autointoxication of infants”. Also, the body weight result with infants (100-200mg/body/day, infants showing decrease of body weight) is recorded as “increase”. Further, the “side effects of tranquilizers and anti-tuberculosis drugs” value in series [2] is reported as “decrease of side effects”. In series [3], the appearance of proteiureia entry was “the appearance of proteiureia is inhibited” and the diuretic effect result is “diuretic effect is observed”. For the same molecule, the “alkali phosphatase, SGOT, SGPT, ASAC and α-GPT and abnormal fraction of serum-protein” value in series [4] (100mg/body/day) was “improvement”. In addition, in series [4] (human, in vivo), the “spontaneous cure of acute and chronic hepatitis” value was “acceleration of the spontaneous cure”. Moreover, the “subjective symptoms and ulcers” value in series [5] (X-ray examination) was “loss of subjective symptoms and the cure of ulcers”. In series [5] (in vivo), the effect on constipation result is on record as “effective on constipation”; the “movement of stomach and intestine” value was “modification of movement of stomach and intestine”. The “effect compared with other therapy” value in [5] (ulcers) is listed as “higher than any other therapy”. Moreover, the “effect on peripheral neuritis” value in series [6] was “become to enjoy normal daily life without serious pain”. The cold exanthema result in series [7] (human, in vivo) is listed as “protects the appearance of cold exanthema”. In addition, in series [7] (single administration of 50 mg/body/day, plethysmography), the “peripheral circulating blood amount” value is on record as “increase of peripheral circulating blood amount”. For the same molecule, the “effect on Diabetes Mellitus” value in [8] is listed as “effective on Diabetes Mellitus”. For the same molecule, the development of amyloidosis entry in [9] (30mg/kg/day) is on record as “a clear prevention of the development was observed”. Also, the development of amyloidosis entry in series [9] (300mg/kg/day) is “completely inhibited the development of amyloidosis”. In series [10] (100-200mg/body/day), the “effect in serious patients indicated for artificial pregnance stopping” value is given as “effective one some serious patients”. Further, in series [10] (human, in vivo), the “symptoms including morning sickness” value is listed as “particularly-effective”. Moreover, the “condition 6 months to 1 year after drug administration” value in series [11] (75mg/body/day, 6 months to 1 year) is listed as “many patients show a condition looking like a complete cure”. Also, in series [11] (setting [21]), the frequency of symptom-appearance result is reported as “decrease of the frequency of symptom-appearance”, the “interval of symptom appearance” value was “becomes longer” and the “use of adrenal cartex hormone” value is “decrease of adrenal cartex hormone or stop of the hormone”. Moreover, the drug allergic reaction entry in series [11] (patients with drug allergy, given with an allergenic drug) was “any drug allergic reaction is not observed”. Besides, the “Malformation produced by cadmium chloride” value in the series on golden hamster (NaOGe 40.0mg/kg, simultaneous intravenous injection, in words) is reported as “prevented completely”. Besides, the effect on migraine result in “Clinical use: migrain” (75mg/body/day) is given as “effective on migraine”. Besides, the “symptoms caused by brain-anemia” value in “Clinical use: migrain” (in vivo) is recorded as “shows the effect on the symptoms caused by brain-anemia”. Further, in the series “Clinical use: epilepsy” (100-500mg/body/day oral), the “EEG: epilepsy specific spike” value was “the loss of epilepsy specific spike is found”, the “EEG: slow burst” value is “the inhibition of slow burst is not observed”, the drowsiness entry is on record as “complete lack of drowsiness” and the grade of convulsion entry is “becomes lighter”. Also, in the series “Clinical use: epilepsy” (100-500mg/body/day oral), the “interval of convulsion appearance” value is “becomes gradually longer”; the “learning and working ability” value was “the improvement of learning -- and working -- ability is observed”. Moreover, the absence of symptoms entry in the series “Clinical use: epilepsy” (continued oral administration, 100-500mg/body/day) is given as “many patients did not show any symptom”. For the same molecule, the hygroscopic property entry in “Hygroscopic property” was “hydroscopic”. Moreover, in the series “Clinical use: hepatoma”, the life span entry is recorded as “increase of life span”. Moreover, in the series “Clinical use: depression”, the depressive status entry is listed as “improvement of depressive status”, the drowsiness entry was “does not give any drowsiness” and the initiation of autonomy entry is given as “clearly observed after drug administration”. For the same molecule, the LD50 result in the series on Mice (ICR strain) is reported as “over 10 g/kg”. The molecule further showed an LD50 in series [12] above 10000 mg/kg. Further, the blood-stream result in series [13] (75-150mg/body/day) was “increase of blood-stream”. The ECG pattern entry in series [13] (75-150mg/body/day, patients with blood-loss ECG symptom) is recorded as “improvement of ECG pattern”. Further, the effect on blood-vessels result in [13] (from the effect on the eye ground symptoms) is on record as “stabilizing effect of blood-vessels”. For the same molecule, the “subcutaneous bleeding of legs and hands” value in series [13] (old people) is given as “inhibited”. Besides, the “effect in treatment and prevention of essential hypertension” value in series [14] is “effective in the treatment and the prevention of essential hypertension”. Moreover, the “effect in patients resistant to other drugs” value in [15] (75mg/body/day oral) was “shows the effect on many patients showing resistance against any other drugs”. The “objective and functional abnormality of various organs controlled by autonomic nervous system” value in series [15] (after drug administration) is “are not found after drug administration”. Further, the direct cytocidal action entry in the series with ascites hepatoma is “does not possess direct cytocidal action”. Also, in series [16], the hullucination entry was “the disappearance of hullucination is accelerated”, the “self-recognization of the disease” value is on record as “clearly found rather early after drug administration” and the working ability result is listed as “The working ability is observed”. Also, the “treated rats showing a complete cure” value in the series on AH66 is on record as “half”. For the same molecule, in the series on AH44, the “treated rats showing a complete cure” value is recorded as “half”. Besides, the “symptoms of general fatigue, malaise and asthenia” value in series [17] (75mg/body/day) was “loss of the symptoms of general fatigue, malaise and asthenia”. Moreover, the “symptoms due to neurosis” value in series [17] (increase of dose to 75mg/body/day) is on record as “early the disappearance of the symptoms due to neurosis”. In addition, in series [18], the ascites entry was “beginning of the loss of ascites”, the liver function entry is recorded as “acceleration of the recovery of liver function” and the “progress of liver dysfunction” value was “stopped the progress of liver dysfunction”.
With `O=C(O)C[CH2][Ge]([OH])([OH])[OH]` [OGe, 3-trihydroxygermylpropionic acid], in [19], the “effect on hypertension in rats” value is “highly effective on hypertension in rats and the effect appears gradually”.
`O=C([O-])C[CH2][Ge]([OH])([OH])[OH].[NH4+]` [Ammonium 3-trihydroxygermylpropionate]: the hygroscopic property result in “Hygroscopic property” is reported as “hydroscopic”.
